Experimental data published in patent publication US10479780B2, “Aminopyrazole derivatives” (Chugai Seiyaku Kabushiki Kaisha, priority 2015, dated 2019).

Legend:
Type in all cases: biochemical
human Yes1 enzyme = molecular target: T1, human Yes1 enzyme (Homo sapiens, UniProt P07947); test: Yes1 enzyme inhibitory activity (time-resolved fluorometry, biotinylated peptide phosphorylation); conditions: read-out: YES_IC50
T1 construct: made in house
Outline: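 Inhibition was expressed against a compound-free control to give IC50, using TR-FRET read-out (Eu-cryptate anti-pTyr antibody, streptavidin-XL665).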

human Lck enzyme = molecular target: T2, human Lck enzyme (Homo sapiens, UniProt P06239); test: Lck enzyme inhibitory activity (time-resolved fluorometry, biotinylated peptide phosphorylation); conditions: read-out: LCK_IC50
T2 construct: purchased Carna Biosciences, Inc. 08-170
Outline: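 Readout pairs a europium cryptate-labelled anti-phosphotyrosine antibody with XL665-streptavidin, measured by time-resolved fluorescence. IC50 derived from percent inhibition against untreated controls.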

human Src enzyme = molecular target: T3, human Src enzyme (Homo sapiens, UniProt P12931); test: Src enzyme inhibitory activity (time-resolved fluorometry, biotinylated peptide phosphorylation); conditions: read-out: SRC_IC50
T3 construct: purchased Carna Biosciences, Inc. 08-173
Outline: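 Compounds were tested for blocking tyrosine phosphorylation of a biotinylated peptide substrate by recombinant human Src. Phosphorylated product was quantified by time-resolved fluorometry using europium cryptate and XL665 conjugates, and IC50 was calculated against the compound-free control.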

T3 sequence (P12931 whole entry): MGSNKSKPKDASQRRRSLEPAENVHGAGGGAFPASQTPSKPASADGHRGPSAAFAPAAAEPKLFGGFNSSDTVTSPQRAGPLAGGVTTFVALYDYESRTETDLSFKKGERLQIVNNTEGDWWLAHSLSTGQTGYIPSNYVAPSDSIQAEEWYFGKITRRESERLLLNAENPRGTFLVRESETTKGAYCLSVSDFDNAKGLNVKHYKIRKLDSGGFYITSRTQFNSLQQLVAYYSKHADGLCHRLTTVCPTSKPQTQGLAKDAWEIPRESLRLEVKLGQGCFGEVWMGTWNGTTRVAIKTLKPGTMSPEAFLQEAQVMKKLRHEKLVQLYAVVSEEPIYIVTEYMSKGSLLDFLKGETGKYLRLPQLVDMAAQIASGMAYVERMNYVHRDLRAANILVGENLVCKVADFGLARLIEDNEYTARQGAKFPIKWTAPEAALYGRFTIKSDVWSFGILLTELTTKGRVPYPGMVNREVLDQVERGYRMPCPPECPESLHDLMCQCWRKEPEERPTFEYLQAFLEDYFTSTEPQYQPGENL
T2 sequence (P06239 whole entry): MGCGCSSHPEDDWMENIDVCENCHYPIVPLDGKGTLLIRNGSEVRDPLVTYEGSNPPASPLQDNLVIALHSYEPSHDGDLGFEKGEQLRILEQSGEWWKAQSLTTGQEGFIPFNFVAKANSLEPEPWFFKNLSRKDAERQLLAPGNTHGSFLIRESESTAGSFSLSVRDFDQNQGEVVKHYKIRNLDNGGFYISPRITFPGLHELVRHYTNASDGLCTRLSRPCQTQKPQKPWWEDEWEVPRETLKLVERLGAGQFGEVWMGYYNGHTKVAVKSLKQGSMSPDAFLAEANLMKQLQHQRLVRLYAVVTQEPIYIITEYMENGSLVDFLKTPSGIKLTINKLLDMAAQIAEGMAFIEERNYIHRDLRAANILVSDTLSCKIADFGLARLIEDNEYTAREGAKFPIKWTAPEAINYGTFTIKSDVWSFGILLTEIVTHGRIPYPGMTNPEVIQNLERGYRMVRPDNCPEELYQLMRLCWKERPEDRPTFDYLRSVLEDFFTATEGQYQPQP
T1 sequence (P07947 whole entry): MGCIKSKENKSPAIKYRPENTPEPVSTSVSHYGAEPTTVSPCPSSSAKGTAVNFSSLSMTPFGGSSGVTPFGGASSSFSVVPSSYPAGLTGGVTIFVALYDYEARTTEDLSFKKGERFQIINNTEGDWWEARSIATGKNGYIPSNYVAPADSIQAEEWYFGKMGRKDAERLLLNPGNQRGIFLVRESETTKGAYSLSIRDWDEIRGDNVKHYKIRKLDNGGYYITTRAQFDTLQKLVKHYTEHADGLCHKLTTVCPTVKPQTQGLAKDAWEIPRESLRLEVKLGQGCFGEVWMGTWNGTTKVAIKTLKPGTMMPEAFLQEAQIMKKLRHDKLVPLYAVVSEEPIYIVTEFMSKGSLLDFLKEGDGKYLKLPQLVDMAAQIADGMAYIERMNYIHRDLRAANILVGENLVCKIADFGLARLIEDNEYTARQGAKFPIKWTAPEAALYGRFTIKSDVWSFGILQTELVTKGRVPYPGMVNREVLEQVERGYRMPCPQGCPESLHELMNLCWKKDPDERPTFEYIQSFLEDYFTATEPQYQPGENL

| SMILES | IC50 (human Yes1 enzyme) | IC50 (human Lck enzyme) | IC50 (human Src enzyme) |
| --- | --- | --- | --- |
| Cc1cc(Oc2ccccc2F)ccc1-n1ncc(C(=O)c2cc3cc(F)c(NC(=O)C(F)(F)F)cc3[nH]2)c1N [Example 5-1-029, N-[2-[5-amino-1-[4-(2-fluorophenoxy)-2-methylphenyl]pyrazole-4-carbonyl]-5-fluoro-1H-indol-6-yl]-2,2,2-trifluoroacetamide] | 0.73 nM | 13 nM | 17 nM |
| CS(=O)(=O)Nc1cc2[nH]c(C(=O)c3cnn(-c4c(F)cc(Oc5cccc(F)c5F)cc4F)c3N)cc2cc1F [Example 5-1-030, N-[2-[5-amino-1-[4-(2,3-difluorophenoxy)-2,6-difluorophenyl]pyrazole-4-carbonyl]-5-fluoro-1H-indol-6-yl]methanesulfonamide] | 2.4 nM | 8.7 nM | 76 nM |
| Nc1c(C(=O)c2cc3cc(F)c(NS(=O)(=O)C4CC4)cc3[nH]2)cnn1-c1c(F)cc(Oc2cccc(F)c2F)cc1F [Example 5-1-031, N-[2-[5-amino-1-[4-(2,3-difluorophenoxy)-2,6-difluorophenyl]pyrazole-4-carbonyl]-5-fluoro-1H-indol-6-yl]cyclopropanesulfonamide] | 4.1 nM | 34 nM | 220 nM |
| Cc1cc(Oc2ccccc2F)cc(C)c1-n1ncc(C(=O)c2cc3cc(F)c(NS(C)(=O)=O)cc3[nH]2)c1N [Example 5-1-032, N-[2-[5-amino-1-[4-(2-fluorophenoxy)-2,6-dimethylphenyl]pyrazole-4-carbonyl]-5-fluoro-1H-indol-6-yl]methanesulfonamide] | 11 nM | 130 nM | 380 nM |
| Nc1c(C(=O)c2cc3cc(F)c(NS(=O)(=O)CCCF)cc3[nH]2)cnn1-c1c(Cl)cc(Oc2ccccc2F)cc1Cl [Example 5-1-033, N-[2-[5-amino-1-[2,6-dichloro-4-(2-fluorophenoxy)phenyl]pyrazole-4-carbonyl]-5-fluoro-1H-indol-6-yl]-3-fluoropropane-1-sulfonamide] | 8.4 nM | 230 nM | 400 nM |
| Nc1c(C(=O)c2cc3cc(F)c(NS(=O)(=O)CCCF)cc3[nH]2)cnn1-c1c(F)cc(Oc2cccc(F)c2F)cc1F [Example 5-1-034, N-[2-[5-amino-1-[4-(2,3-difluorophenoxy)-2,6-difluorophenyl]pyrazole-4-carbonyl]-5-fluoro-1H-indol-6-yl]-3-fluoropropane-1-sulfonamide] | 3.5 nM | 62 nM | 180 nM |
| Nc1c(C(=O)c2cc3cc(F)c(NS(=O)(=O)CCCF)cc3[nH]2)cnn1-c1ccc(Oc2ncccc2F)cc1F [Example 5-1-035, N-[2-[5-amino-1-[2-fluoro-4-(3-fluoropyridin-2-yl)oxyphenyl]pyrazole-4-carbonyl]-5-fluoro-1H-indol-6-yl]-3-fluoropropane-1-sulfonamide] | 0.68 nM | 35 nM | 85 nM |
| Nc1c(C(=O)c2cc3cc(F)c(NS(=O)(=O)CCCF)cc3[nH]2)cnn1-c1ccc(Oc2ncccc2Cl)cc1F [Example 5-1-036, N-[2-[5-amino-1-[4-(3-chloropyridin-2-yl)oxy-2-fluorophenyl]pyrazole-4-carbonyl]-5-fluoro-1H-indol-6-yl]-3-fluoropropane-1-sulfonamide] | 1.5 nM | 65 nM | 140 nM |
| Nc1c(C(=O)c2cc3cc(F)c(NS(=O)(=O)CCCF)cc3[nH]2)cnn1-c1ccc(Oc2ncccc2Cl)cc1Cl [Example 5-1-037, N-[2-[5-amino-1-[2-chloro-4-(3-chloropyridin-2-yl)oxyphenyl]pyrazole-4-carbonyl]-5-fluoro-1H-indol-6-yl]-3-fluoropropane-1-sulfonamide] | 0.91 nM | 17 nM | 45 nM |
| Cc1cc(Oc2cc(F)cc(F)c2)ncc1-n1ncc(C(=O)c2cc3cc(F)c(NS(C)(=O)=O)cc3[nH]2)c1N [Example 5-1-038, N-[2-[5-amino-1-[6-(3,5-difluorophenoxy)-4-methylpyridin-3-yl]pyrazole-4-carbonyl]-5-fluoro-1H-indol-6-yl]methanesulfonamide] | 16 nM | 66 nM | 270 nM |
| Cc1cc(-n2ncc(C(=O)c3cc4cc(F)c(NS(C)(=O)=O)cc4[nH]3)c2N)cnc1Oc1ccccc1F [Example 5-1-039, N-[2-[5-amino-1-[6-(2-fluorophenoxy)-5-methylpyridin-3-yl]pyrazole-4-carbonyl]-5-fluoro-1H-indol-6-yl]methanesulfonamide] | 120 nM | 2000 nM | 6100 nM |
| Cc1cc(Oc2ccccc2F)cc(C)c1-n1ncc(C(=O)c2cc3cc(F)c(NS(=O)(=O)CCCF)cc3[nH]2)c1N [Example 5-1-040, N-[2-[5-amino-1-[4-(2-fluorophenoxy)-2,6-dimethylphenyl]pyrazole-4-carbonyl]-5-fluoro-1H-indol-6-yl]-3-fluoropropane-1-sulfonamide] | 13 nM | 88 nM | 280 nM |
| Cc1cc(Oc2ccc(F)cc2)ncc1-n1ncc(C(=O)c2cc3cc(F)c(NS(=O)(=O)C4CC4)cc3[nH]2)c1N [Example 5-1-046, N-[2-[5-amino-1-[6-(4-fluorophenoxy)-4-methylpyridin-3-yl]pyrazole-4-carbonyl]-5-fluoro-1H-indol-6-yl]cyclopropanesulfonamide] | 7.9 nM | 110 nM | 160 nM |
| Cc1ccccc1Oc1cc(C)c(-n2ncc(C(=O)c3cc4cc(NS(C)(=O)=O)c(F)cc4[nH]3)c2N)cn1 [Example 5-1-047, N-[2-[5-amino-1-[4-methyl-6-(2-methylphenoxy)pyridin-3-yl]pyrazole-4-carbonyl]-6-fluoro-1H-indol-5-yl] methanesulfonamide] | 0.87 nM | 5.1 nM | 15 nM |
| Cc1cc(Oc2cccc(Cl)c2)cc(F)c1-n1ncc(C(=O)c2cc3cc(NS(C)(=O)=O)c(F)cc3[nH]2)c1N [Example 5-1-048, N-[2-[5-amino-1-[4-(3-chlorophenoxy)-2-fluoro-6-methylphenyl]pyrazole-4-carbonyl]-6-fluoro-1H-indol-5-yl]methanesulfonamide] | 1.6 nM | 6.4 nM | 110 nM |
| Cc1cc(Oc2cccc(F)c2F)ncc1-n1ncc(C(=O)c2cc3cc(NS(C)(=O)=O)c(F)cc3[nH]2)c1N [Example 5-1-049, N-[2-[5-amino-1-[6-(2,3-difluorophenoxy)-4-methylpyridin-3-yl]pyrazole-4-carbonyl]-6-fluoro-1H-indol-5-yl]methanesulfonamide] | 1.5 nM | 3.9 nM | 70 nM |
| Cc1cc(Oc2ccccc2Cl)ncc1-n1ncc(C(=O)c2cc3cc(NS(C)(=O)=O)c(F)cc3[nH]2)c1N [Example 5-1-050, N-[2-[5-amino-1-[6-(2-chlorophenoxy)-4-methylpyridin-3-yl]pyrazole-4-carbonyl]-6-fluoro-1H-indol-5-yl]methanesulfonamide] | 0.77 nM | 1.8 nM | 23 nM |
| Cc1cc(Oc2ccccc2Cl)nc(C)c1-n1ncc(C(=O)c2cc3cc(F)c(NS(C)(=O)=O)cc3[nH]2)c1N [Example 5-1-051, N-[2-[5-amino-1-[6-(2-chlorophenoxy)-2,4-dimethylpyridin-3-yl]pyrazole-4-carbonyl]-5-fluoro-1H-indol-6-yl]methanesulfonamide] | 60 nM | 82 nM | 320 nM |
| Cc1cc(Oc2cccc(Cl)c2)nc(C)c1-n1ncc(C(=O)c2cc3cc(F)c(NS(C)(=O)=O)cc3[nH]2)c1N [Example 5-1-052, N-[2-[5-amino-1-[6-(3-chlorophenoxy)-2,4-dimethylpyridin-3-yl]pyrazole-4-carbonyl]-5-fluoro-1H-indol-6-yl]methanesulfonamide] | 120 nM | 250 nM | 810 nM |
| Cc1cc(Oc2cccc(F)c2F)nc(C)c1-n1ncc(C(=O)c2cc3cc(F)c(NS(C)(=O)=O)cc3[nH]2)c1N [Example 5-1-053, N-[2-[5-amino-1-[6-(2,3-difluorophenoxy)-2,4-dimethylpyridin-3-yl]pyrazole-4-carbonyl]-5-fluoro-1H-indol-6-yl]methanesulfonamide] | 65 nM | 97 nM | 430 nM |
| Cc1cc(Oc2cc(F)cc(F)c2)nc(C)c1-n1ncc(C(=O)c2cc3cc(F)c(NS(C)(=O)=O)cc3[nH]2)c1N [Example 5-1-054, N-[2-[5-amino-1-[6-(3,5-difluorophenoxy)-2,4-dimethylpyridin-3-yl]pyrazole-4-carbonyl]-5-fluoro-1H-indol-6-yl]methanesulfonamide] | 150 nM | 350 nM | 1000 nM |
| Cc1cc(Oc2cc(Cl)ccc2Cl)ncc1-n1ncc(C(=O)c2cc3cc(F)c(NS(C)(=O)=O)cc3[nH]2)c1N [Example 5-1-055, N-[2-[5-amino-1-[6-(2,5-dichlorophenoxy)-4-methylpyridin-3-yl]pyrazole-4-carbonyl]-5-fluoro-1H-indol-6-yl]methanesulfonamide] | 16 nM | 94 nM | 190 nM |
| Cc1cc(Oc2ccccc2F)ncc1-n1ncc(C(=O)c2cc3cc(F)c(NS(=O)(=O)CC(=O)NC(C)C)cc3[nH]2)c1N [Example 5-1-056, 2-[[2-[5-amino-1-[6-(2-fluorophenoxy)-4-methylpyridin-3-yl]pyrazole-4-carbonyl]-5-fluoro-1H-indol-6-yl]sulfamoyl]-N-propan-2-ylacetamide] | 1.7 nM | 24 nM | 76 nM |
